Laboratory results: patent US12479848B2, “Substituted fused heteroaromatic bicyclic compounds as kinase inhibitors and the use thereof” (IMPACT THERAPEUTICS (SHANGHAI), INC, priority 2019, dated 2025)
Like-named read-outs stand apart in the source and are kept apart here.

Legend:
[1] = tested on: human prostate cancer cell DU145; assay: MTT proliferation assay, DU145; type: cell-based; conditions: for IC50: Homo sapiens, DU-145, 96 h, 4 days, read-out: IC50 (nM), inhibition of proliferation of DU145
Protocol: The cells were digested by trypsinase and centrifuged at 800 rpm for 5 minutes, the supernatant was discarded, and the residual was resuspended with fresh medium (DMEM medium+10% FBS+non-essential amino acid) and counted. The cells were seeded into 96-well cell culture plate with a density of 2000 cells per well and incubated overnight in a 5% CO2 incubator at 37° C. […] 5 μL of each concentration was added to 120 μL of medium (25 times diluted) and mixed by shaking. The overnight cell plates were taken and the culture medium was removed, 195 μL of fresh medium was added to each well, and 5 μL of diluted medium containing the corresponding concentration of the test compound was added respectively (the final concentrations of compounds are shown in Table 3, the final concentration of DMSO is 1%), and the culture plate was then placed in a 5% CO2 incubator at 37° C. for 4 days. After removing the original solution, 100 μL of fresh serum-free DMEM medium containing MTT (0.5 mg/mL) was added to each well, the culture was continued. […] GraphPad Prism 6.0 was used to analyze the data. The inhibitory activity of compounds on cell proliferation was plotted based on cell viability and the logarithm of compound concentration. Cell viability %=(ODcompound−ODbackground)/(ODDMSO−ODbackground)×100.

[2] = tested on: human lung cancer cell NCI-H460; assay: MTT proliferation assay, NCI-H460; type: cell-based; conditions: for IC50: Homo sapiens, NCI-H460, 96 h, 4 days, read-out: IC50 (nM), inhibition of proliferation of NCI-H460
Protocol: (§1) The cells were seeded into 96-well cell culture plate with a density of 2000/4000 cells per well and incubated overnight in a 5% CO2 incubator at 37° C. […] 5 L diluent of each concentration was added to 120 μL of medium (25 times diluted) and mixed by shaking. The overnight cell plates were taken and the culture medium was removed, 195 μL of fresh medium was added to each well, and 5 μL of diluted medium containing the corresponding concentration of the test compound was added respectively (the final concentration of DMSO is 1%), and the culture plate was then placed in a 5% CO2 incubator at 37° C. for 4 days. After removing the original solution, 100 μL of fresh serum-free DMEM medium containing MTT (0.5 mg/mL) was added to each well, the culture was continued. […] Cell viability (%)=(ODcompound−ODbackground)/(ODDMSO−ODbackground)×100. GraphPad Prism 6.0 was used to analyze the data. The inhibitory activity of compounds on cell proliferation was plotted based on cell viability and the logarithm of compound concentration.

ATR/ATRIP enzyme = molecular target: T1, ATR/ATRIP enzyme (Homo sapiens, UniProt Q13535); assay: ATR enzyme activity experiment (HTRF); type: biochemical; conditions: for IC50: HTRF, p53 substrate, 30 minutes at room temperature; for inhibition at 0.05 µM: read-out: Inh %, inhibitory effects on ATR kinase activity at 50 nM
T1 construct: purchased Eurofins 14-953
Protocol: The test compound was diluted to a 4× final concentration with reaction buffer (25 mM HEPES (pH8.0), 10 mM MnCl2, 1% glycerol, 0.01% Brij-35, 5 mM DTT and 0.1% BSA). […] The mixture was centrifuged at 1000 rpm for 1 minute, and reacted at room temperature protected from light for 30 minutes. Then 5 μL of EDTA stop solution (250 mM) was added to stop the reaction. […] Data were analyzed using GraphPad Prism6.0, and fitted using the curve equation: Y=Bottom+(Top−Bottom)/(1+10^((Log IC50−X)*HillSlope)) and IC50 values were calculated.

[3] = tested on: human colon cancer cell LoVo; assay: MTT proliferation assay, LoVo; type: cell-based; conditions: for IC50: Homo sapiens, LoVo, 96 h, 4 days, read-out: IC50 (nM), inhibition of proliferation of LoVo
Protocol: as §1, with “5 μL” for “5 L”, “viability (%)=(ODcompound−ODbackground)/(ODDMSO-ODbackground)×100.” for “viability (%)=(ODcompound−ODbackground)/(ODDMSO−ODbackground)×100.”

[4] = read-out: IC50 (nM), inhibitory effects on ATR kinase activity

T1 sequence (Q13535 whole entry): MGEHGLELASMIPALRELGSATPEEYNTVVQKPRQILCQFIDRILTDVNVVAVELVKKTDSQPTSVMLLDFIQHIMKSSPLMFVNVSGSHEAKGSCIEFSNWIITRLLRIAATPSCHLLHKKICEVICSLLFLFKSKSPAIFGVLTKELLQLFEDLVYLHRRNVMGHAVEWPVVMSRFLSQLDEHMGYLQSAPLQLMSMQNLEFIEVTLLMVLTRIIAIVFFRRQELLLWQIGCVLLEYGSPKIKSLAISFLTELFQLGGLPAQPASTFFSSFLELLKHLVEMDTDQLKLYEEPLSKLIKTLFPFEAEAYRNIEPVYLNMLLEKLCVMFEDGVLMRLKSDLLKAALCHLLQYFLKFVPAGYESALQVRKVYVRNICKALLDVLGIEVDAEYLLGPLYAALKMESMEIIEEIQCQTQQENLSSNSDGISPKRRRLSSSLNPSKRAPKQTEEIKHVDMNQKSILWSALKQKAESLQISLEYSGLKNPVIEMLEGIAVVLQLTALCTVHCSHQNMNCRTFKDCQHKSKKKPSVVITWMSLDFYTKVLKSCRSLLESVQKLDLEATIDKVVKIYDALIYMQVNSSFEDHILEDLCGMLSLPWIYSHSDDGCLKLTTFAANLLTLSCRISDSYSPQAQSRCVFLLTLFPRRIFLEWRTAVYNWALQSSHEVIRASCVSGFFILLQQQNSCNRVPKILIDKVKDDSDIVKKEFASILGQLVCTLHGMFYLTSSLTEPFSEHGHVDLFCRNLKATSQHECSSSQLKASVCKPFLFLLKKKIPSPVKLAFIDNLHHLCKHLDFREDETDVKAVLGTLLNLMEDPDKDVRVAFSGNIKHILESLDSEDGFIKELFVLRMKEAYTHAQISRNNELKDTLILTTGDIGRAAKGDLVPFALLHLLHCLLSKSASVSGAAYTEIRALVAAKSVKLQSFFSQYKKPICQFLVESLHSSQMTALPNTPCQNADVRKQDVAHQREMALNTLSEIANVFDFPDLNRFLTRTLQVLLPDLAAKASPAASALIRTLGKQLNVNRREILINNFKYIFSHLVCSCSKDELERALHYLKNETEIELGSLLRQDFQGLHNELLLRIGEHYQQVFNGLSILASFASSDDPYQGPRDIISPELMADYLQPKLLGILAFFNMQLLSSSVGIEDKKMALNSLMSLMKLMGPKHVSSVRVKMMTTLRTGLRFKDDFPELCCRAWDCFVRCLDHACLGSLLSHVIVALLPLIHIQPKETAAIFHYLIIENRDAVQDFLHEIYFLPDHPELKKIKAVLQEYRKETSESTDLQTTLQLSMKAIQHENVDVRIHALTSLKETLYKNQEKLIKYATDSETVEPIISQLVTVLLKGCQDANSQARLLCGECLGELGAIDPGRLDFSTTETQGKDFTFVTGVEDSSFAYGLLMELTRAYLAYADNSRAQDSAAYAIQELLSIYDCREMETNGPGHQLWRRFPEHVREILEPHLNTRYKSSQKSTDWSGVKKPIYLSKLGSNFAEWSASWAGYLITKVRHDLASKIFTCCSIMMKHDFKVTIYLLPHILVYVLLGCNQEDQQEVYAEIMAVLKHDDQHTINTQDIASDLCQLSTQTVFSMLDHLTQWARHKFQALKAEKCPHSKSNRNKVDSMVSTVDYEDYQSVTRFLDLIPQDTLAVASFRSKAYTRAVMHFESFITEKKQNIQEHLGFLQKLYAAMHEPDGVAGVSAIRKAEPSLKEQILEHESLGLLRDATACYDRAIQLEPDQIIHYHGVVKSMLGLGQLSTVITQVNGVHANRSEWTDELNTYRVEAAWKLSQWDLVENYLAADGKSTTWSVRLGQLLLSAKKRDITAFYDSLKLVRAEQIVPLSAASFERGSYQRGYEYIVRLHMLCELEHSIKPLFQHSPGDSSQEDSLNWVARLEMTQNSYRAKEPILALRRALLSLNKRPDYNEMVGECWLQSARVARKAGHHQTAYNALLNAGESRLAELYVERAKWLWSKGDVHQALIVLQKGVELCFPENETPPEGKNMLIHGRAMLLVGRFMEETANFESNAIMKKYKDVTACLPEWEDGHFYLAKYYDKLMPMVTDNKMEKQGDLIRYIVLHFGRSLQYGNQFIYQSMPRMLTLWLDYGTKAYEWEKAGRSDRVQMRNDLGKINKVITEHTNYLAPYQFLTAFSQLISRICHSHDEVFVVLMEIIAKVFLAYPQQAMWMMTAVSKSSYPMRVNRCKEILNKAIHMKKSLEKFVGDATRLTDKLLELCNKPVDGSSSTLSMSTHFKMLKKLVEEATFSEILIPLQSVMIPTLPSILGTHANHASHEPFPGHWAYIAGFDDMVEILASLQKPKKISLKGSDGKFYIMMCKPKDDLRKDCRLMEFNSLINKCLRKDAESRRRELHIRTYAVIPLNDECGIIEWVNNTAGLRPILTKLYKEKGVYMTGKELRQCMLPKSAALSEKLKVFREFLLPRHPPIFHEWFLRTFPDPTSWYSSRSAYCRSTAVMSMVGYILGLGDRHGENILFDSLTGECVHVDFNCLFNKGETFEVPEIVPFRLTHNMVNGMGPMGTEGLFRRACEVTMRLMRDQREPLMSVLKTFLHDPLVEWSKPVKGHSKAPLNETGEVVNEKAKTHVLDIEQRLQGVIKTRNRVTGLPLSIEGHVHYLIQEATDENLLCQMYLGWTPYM
T1 sequence (Q8WXE1 whole entry partner): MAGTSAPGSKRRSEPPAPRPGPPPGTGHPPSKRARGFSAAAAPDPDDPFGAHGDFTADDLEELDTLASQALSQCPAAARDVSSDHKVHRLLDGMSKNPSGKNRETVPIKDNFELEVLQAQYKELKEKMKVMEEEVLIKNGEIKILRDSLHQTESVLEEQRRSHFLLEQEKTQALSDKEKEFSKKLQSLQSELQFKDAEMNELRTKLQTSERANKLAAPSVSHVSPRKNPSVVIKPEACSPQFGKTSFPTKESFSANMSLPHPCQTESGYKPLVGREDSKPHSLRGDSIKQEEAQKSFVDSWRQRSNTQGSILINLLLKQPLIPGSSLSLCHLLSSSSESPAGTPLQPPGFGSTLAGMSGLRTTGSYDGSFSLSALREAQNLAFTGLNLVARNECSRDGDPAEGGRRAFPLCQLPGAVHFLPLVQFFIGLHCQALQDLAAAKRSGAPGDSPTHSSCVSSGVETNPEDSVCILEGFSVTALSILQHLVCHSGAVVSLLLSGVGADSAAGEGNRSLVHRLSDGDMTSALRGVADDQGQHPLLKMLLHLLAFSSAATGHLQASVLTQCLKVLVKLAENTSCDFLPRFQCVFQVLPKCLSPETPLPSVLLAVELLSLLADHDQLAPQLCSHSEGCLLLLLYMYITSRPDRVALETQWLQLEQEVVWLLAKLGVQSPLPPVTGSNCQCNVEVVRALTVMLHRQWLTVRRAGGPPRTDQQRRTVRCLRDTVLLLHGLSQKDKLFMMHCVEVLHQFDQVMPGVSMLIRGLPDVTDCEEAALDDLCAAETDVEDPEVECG

Row | Structure (SMILES) | IC50 [1] [nM] | IC50 [2] [nM] | IC50 (ATR/ATRIP enzyme) [nM] | IC50 [3] [nM] | further results
1 | C[C@@H]1CN(c2cc(N3CCOC[C@H]3C)nn3c(-c4ccn[nH]4)cnc23)C[C@H](C)O1 [Example 10, (2S,6R)-2,6-dimethyl-4-(6-((R)-3-methylmorpholino)-3-(1H-pyrazol-5-yl)imidazo[1,2-b]pyridazin-8-yl)morpholine] | 2300 | 1110 |  |  | 
2 | C[C@@H]1COCCN1c1cc(-c2ccnn2C)c2ncc(-c3ccn[nH]3)n2n1 [Example 2, (R)-3-methyl-4-(8-(1-methyl-1H-pyrazol-5-yl)-3-(1H-pyrazol-5-yl)imidazo[1,2-b]pyridazin-6-yl)morpholine] | 1220 | 907 |  |  | IC50 (ATR/ATRIP enzyme; [4]): 938 nM; inhibitory effect on the proliferation of DU145 cell (in words) [1]: inhibitory effect; inhibitory effect on the proliferation of NCI-H460 cell (in words) [2]: inhibitory effect; inhibitory effect on the proliferation of LoVo cell (in words) [3]: inhibitory effect
3 | C[C@@H]1COCCN1c1cc(N2CCOCC2)c2ncc(-c3ccn[nH]3)n2n1 [Example 9, (R)-3-methyl-4-(8-morpholino-3-(1H-pyrazol-5-yl)imidazo[1,2-b]pyridazin-6-yl)morpholine] | 1630 | 583 |  |  | 
4 | C[C@@H]1COCCN1c1cc(-c2ccnn2C)n2ncc(-c3ccn[nH]3)c2n1 [Example 16, (R)-3-methyl-4-(7-(1-methyl-1H-pyrazol-5-yl)-3-(1H-pyrazol-5-yl)pyrazolo[1,5-a]pyrimidin-5-yl)morpholine] | 1370 | 527 |  |  | 
5 | CC(C)n1nccc1-c1cc(N2CCOC[C@H]2C)nn2c(-c3ccn[nH]3)cnc12 [Example 4, (R)-3-methyl-4-(8-(1-isopropyl-1H-pyrazol-5-yl)-3-(1H-pyrazol-5-yl)imidazo[1,2-b]pyridazin-6-yl)morpholine] | 1090 | 531 |  |  | 
6 | C[C@@H]1COCCN1c1cc(-c2ccnn2C)c2cnc(-c3ccc[nH]3)n2n1 [Example 22, (R)-3-methyl-4-(4-(1-methyl-1H-pyrazol-5-yl)-7-(1H-pyrrol-2-yl)imidazo[1,5-b]pyridazin-2-yl)morpholine] |  | 1150 | 2.06 | 854 | 
7 | Cc1n[nH]cc1-c1cc(N2CCOC[C@H]2C)nn2c(-c3ccn[nH]3)ncc12 [Example 38, (R)-3-methyl-4-(4-(3-methyl-1H-pyrazol-4-yl)-7-(1H-pyrazol-5-yl)imidazo[1,5-b]pyridazin-2-yl)morpholine] |  | 419 |  | 128 | inhibition at 0.05 µM (ATR/ATRIP enzyme): 90%
8 | C[C@@H]1COCCN1c1cc(-c2ccc(S(C)(=O)=O)cc2)c2ncc(-c3ccn[nH]3)n2n1 [Example 7, (R)-3-methyl-4-(8-(4-(methylsulfonyl)phenyl)-3-(1H-pyrazol-5-yl)imidazo[1,2-b]pyridazin-6-yl)morpholine] | 1200 | 864 |  |  | 
9 | C[C@@H]1COCCN1c1cc(-c2ccccc2F)c2ncc(-c3ccn[nH]3)n2n1 [Example 8, (R)-3-methyl-4-(8-(2-fluorophenyl)-3-(1H-pyrazol-5-yl)imidazo[1,2-b]pyridazin-6-yl)morpholine] | 1110 | 409 |  |  | 
10 | CCn1nccc1-c1cc(N2CCOC[C@H]2C)nn2c(-c3ccn[nH]3)cnc12 [Example 3, (R)-3-methyl-4-(8-(1-ethyl-1H-pyrazol-5-yl)-3-(1H-pyrazol-5-yl)imidazo[1,2-b]pyridazin-6-yl)morpholine] | 1100 | 1040 |  |  | 

These reach a lower IC50 [2]. Values come first.

Row | IC50 [1] [nM] | IC50 [2] [nM] | IC50 (ATR/ATRIP enzyme) [nM] | IC50 [3] [nM] | Structure (SMILES) | further results
11 | 914 | 322 |  |  | Cc1ccc(-c2cc(N3CCOC[C@H]3C)nn3c(-c4ccn[nH]4)cnc23)cn1 [Example 6, (R)-3-methyl-4-(8-(6-methylpyridin-3-yl)-3-(1H-pyrazol-5-yl)imidazo[1,2-b]pyridazin-6-yl)morpholine] | 
12 |  | 156 | 11 | 133 | Cc1nc(S(C)(=O)=O)ccc1-c1cc(N2CCOC[C@H]2C)nn2c(-c3ccn[nH]3)ncc12 [Example 48, (R)-3-methyl-4-(4-(2-methyl-6-(methylsulfonyl)pyridin-3-yl)-7-(1H-pyrazol-5-yl)imidazo[1,5-b]pyridazin-2-yl)morpholine] | 
13 |  | 289 |  | 138 | Cc1cc(S(C)(=O)=O)ncc1-c1cc(N2CCOC[C@H]2C)nn2c(-c3ccn[nH]3)ncc12 [Example 44, (R)-3-methyl-4-(4-(4-methyl-6-(methylsulfonyl)pyridin-3-yl)-7-(1H-pyrazol-5-yl)imidazo[1,5-b]pyridazin-2-yl)morpholine] | inhibition at 0.05 µM (ATR/ATRIP enzyme): 58%
14 |  | 26.1 | 3 | 30.7 | Cc1ccc(-c2cc(N3CCOC[C@H]3C)nn3c(-c4cc(C)n[nH]4)ncc23)cn1 [Example 39, (R)-3-methyl-4-(7-(3-methyl-1H-pyrazol-5-yl)-4-(6-methylpyridin-3-yl)imidazo[1,5-b]pyridazin-2-yl)morpholine] | 
15 |  | 78.6 | 15 | 87.3 | C[C@@H]1COCCN1c1cc(C2CC2)c2cnc(-c3ccn[nH]3)n2n1 [Example 32, (R)-4-(4-cyclopropyl-7-(1H-pyrazol-5-yl)imidazo[1,5-b]pyridazin-2-yl)-3-methylmorpholine] | 
16 |  | 26.3 | 9 | 41.9 | C[C@@H]1COCCN1c1cc(-c2cccc(C#N)c2)c2cnc(-c3ccn[nH]3)n2n1 [Example 52, (R)-3-(2-(3-methylmorpholino)-7-(1H-pyrazol-5-yl)imidazo[1,5-b]pyridazin-4-yl)benzonitrile] | 
17 |  | 116 |  | 114 | Cc1ccc(C)n1-c1cc(N2CCOC[C@H]2C)nn2c(-c3ccn[nH]3)ncc12 [Example 36, (R)-4-(4-(2,5-dimethyl-1H-pyrrol-1-yl)-7-(1H-pyrazol-5-yl)imidazo[1,5-b]pyridazin-2-yl)-3-methylmorpholine] | inhibition at 0.05 µM (ATR/ATRIP enzyme): 63%
18 |  | 18.2 | 1 | 20.7 | C[C@@H]1COCCN1c1cc(-c2cccnc2C(F)(F)F)c2cnc(-c3ccn[nH]3)n2n1 [Example 47, (R)-4-(7-(1H-pyrazol-5-yl)-4-(2-(trifluoromethyl)pyridin-3-yl)imidazo[1,5-b]pyridazin-2-yl)-3-methylmorpholine] | 
19 |  | 78.8 | 5 | 84.2 | Cc1ncncc1-c1cc(N2CCOC[C@H]2C)nn2c(-c3ccn[nH]3)ncc12 [Example 45, (R)-3-methyl-4-(4-(4-methylpyrimidin-5-yl)-7-(1H-pyrazol-5-yl)imidazo[1,5-b]pyridazin-2-yl)morpholine] | 
20 | 131 | 41.3 |  | 53.5 | C[C@@H]1COCCN1c1cc(-c2ccnn2C)c2cnc(-c3ccn[nH]3)n2n1 [Example 13, (R)-3-methyl-4-(4-(1-methyl-1H-pyrazol-5-yl)-7-(1H-pyrazol-5-yl)imidazo[1,5-b]pyridazin-2-yl)morpholine] | inhibitory effect on ATR kinase activity (in words) (ATR/ATRIP enzyme; ATR enzyme activity experiment): good inhibitory effect; IC50 (ATR/ATRIP enzyme; [4]): 4 nM; inhibitory effect on the proliferation of DU145 cell (in words) [1]: good inhibitory effect; inhibitory effect on the proliferation of NCI-H460 cell (in words) [2]: good inhibitory effect; inhibitory effect on the proliferation of LoVo cell (in words) [3]: good inhibitory effect
